According to patent publication US6399560B1, “Biocide and biocidal cloth containing a metal pyridinethione and additional biocide” (Novapharm Research (Australia) Pty Ltd., priority 1997, dated 2002):
Where two headings read alike, the source gives them in different places.

How the values were obtained:
[1] = cited from earlier work
[2] = acute toxicity, cited from earlier work; for LD50 Subcut: subcutaneous
[3] = cited from earlier work; for Oxidising Agents: compatibility with oxidising agents; for Reducing Agents: compatibility with reducing agents
[4] = tested on: gram positive microorganisms; conditions: cited from earlier work
Fish = conditions: in vivo; cited from earlier work
gram negative bacteria = conditions: cited from earlier work
[5] = in vivo; cited from earlier work
Pseudomonas Aeruginosa = assay: Effect of biocide-impregnated fabric on Pseudomonas Aeruginosa population; assay type: cell-based; conditions: zinc pyridinethione 0.85%, dichlorophen 0.85%, combination 0.5% + 0.5% of dry fabric weight
Description: A biocidal cloth according to the invention was subjected to a standard quantitative test for microorganisms, “Assessment of Antibacterial Finishes on Textile Materials”: Test Method AATCC 100-1993. This test is specifically designed for the assessment of the biocidal properties of fabric treatments. These treatments are designed to kill microorganisms within the fabric, rather than on surfaces which come into contact with the fabric.
The weights are given relative to the weight of dry fabric.

| Compound | Irritancy dermal ([1]; in vivo) | Irritancy eye ([1]; in vivo) | LD 50 IV [2] | LD50 Dermal [2] | LD50 Oral [2] | LD50 Subcut [2] | Oxidising Agents [3] | Reducing Agents [3] | Effectiveness against gram positive [4] | Fish Toxicity (Fish) | Effectiveness against gram negative (gram negative bacteria) | Teratogenicity [5] | Change in bacterial population, DAY 1 (positive = increase, negative = decrease) (Pseudomonas Aeruginosa) | Change in bacterial population, DAY 2 (positive = increase, negative = decrease) (Pseudomonas Aeruginosa) | Irritancy dermal ([1]; dermal / skin) | Irritancy dermal ([1]; dermal / skin, listed as zinc pyridinethione) | Irritancy eye ([1]; eye) | Irritancy eye ([1]; eye, listed as zinc pyridinethione) |
| --- | --- | --- | --- | --- | --- | --- | --- | --- | --- | --- | --- | --- | --- | --- | --- | --- | --- | --- |
| Oc1ccc(Cl)cc1Cc1cc(Cl)ccc1O [DICHLOROPHEN, dichlorophen] | Slight dermal | Moderate eye | 17 mg/kg | 5000 mg/kg | 3300 mg/kg | >3000 mg/kg | incompatible | no effect | particularly effective | 23 mg/lt | some grain negative activity | no effect | +0.439 | +2.12 |  |  |  |  |
| Oc1cc(Cl)ccc1Oc1ccc(Cl)cc1Cl [Triclosan, triclosan] |  |  |  |  |  |  |  |  | particularly effective |  | some grain negative activity |  |  |  |  |  |  |  |
| zinc pyridinethione |  |  | 10 mg/kg | 100 mg/kg | 160 mg/kg | 730 mg/kg | decomposes | decomposes | effective |  | limited effectiveness | reduced wt | +0.845 | +0.35 | Moderate dermal | mildly irritating | Severe eye | severely so |
